Data published in patent US11397178B2, “Method of predicting progression of idiopathic pulmonary fibrosis and monitoring of therapeutic efficacy” (Cedars-Sinai Medical Center, priority 2016, dated 2022).

Tests used:
[1] = test system: normal and IPF lung fibroblasts; assay: Soluble collagen 1 ELISA of lung fibroblast conditioned supernatants; assay type: cell-based, human
Method: Lung fibroblasts (5000/well) were plated into a 96 well plate and incubated overnight. After incubation, cells were stimulated with 20 ng/ml of IL1β or vehicle in the presence or absence of 20 μg/ml of EphA3-Fc or IgG antibodies (supplied by Kalobios) for 24 and 72 h. After stimulation, conditioned supernatants were collected and the cells were washed and fixed with 4% paraformaldehyde solution in PBS for 10 min at room temperature.
Lung fibroblast conditioned supernatants were diluted 1:5 in DPBS. Purified Collagen 1 (STEMCELL Technologies Inc), diluted in 1:5 DBPS diluted complete medium, was utilized to generate an 8-point collagen 1 standard ranging from 200-0 ng/ml. Fifty microliters of the supernatants and standards were coated onto multisorb 96 well plates (Thermo Fisher Scientific) overnight at 4° C. After coating, the plates were washed and blocked with 200 μl of 3% BSA solution in DPBS (Lonza) for 1 h at room temperature on an orbital shaker. After blocking, plates were washed and 50 μl of 200 ng/ml biotin-conjugated anti collagen-1 antibody (Abcam Ab24821) was added to each well and the plates were incubated for 2 h at room temperature on an orbital shaker. […] Data were acquired by reading the absorbance at 405 nm using a Synergy H1 microplate reader (BioTek Instruments Inc.). […]

[2] = test system: normal and IPF lung fibroblasts; assay: Flow cytometry for cell surface EphA3 expression on stimulated lung fibroblasts; assay type: cell-based, human; conditions: 20 ng/ml; twenty-four hours after stimulation
Method: IPF surgical lung biopsy samples were obtained. IPF lung fibroblasts were generated by mechanically dissociating IPF lung biopsies or explants into sterile tissue culture plates. After mechanical dissociation, tissues were passed through a 25-ml pipette for 10 times, in DMEM (Lonza)+15% FBS (Cell Generation), 100 IU penicillin and 100 μg/ml streptomycin (Mediatech), 292 μg/ml L-Glutamine (Mediatech) and 100 μg/ml of Primocin (Invivogen) (complete medium). Cells were cultured at 37° C. and 10% CO2, medium was changed twice a week by careful removal of the liquid and retaining the minced tissues. This process was repeated for 1-2 weeks, until stromal colonies were apparent, after which fibroblast colonies were trypsinized and passaged. After 4-5 passages, fibroblast purity was confirmed using flow cytometry and/or qPCR analysis for CD45, EpCAM and CD31. Fibroblasts were then cultured in complete medium; fresh medium was added to the fibroblasts every 2-3 days and the cells were passaged when they were 70-90% confluent. […] After treatment, cells were then analyzed by flow cytometry for cell surface EphA3 expression.
Lung fibroblasts were plated and treated as described above. […] Flow cytometric data were acquired using a MACSQuant 10 (Miltenyi Biotech) flow cytometer and data were analyzed using Flowjo software V10.2 (freest& Inc.).

[3] = FDA approved treatment of IPF patients; cited from earlier work
[4] = test system: CCR10+ IPF Cell-Induced Fibrosis in NSG Mice; assay: Humanized NSG mouse model of IPF: BIBF1120 from day 35 (Masson's trichrome, hydroxyproline, flow cytometry); assay type: in vivo; conditions: for modulation of fibrosis in humanized NSG model of IPF: therapeutic treatment from day 35
Method: IPF cells were injected intravenously into NSG mice and beginning at day 35 after injection mice were treated either with a solutol vehicle or 60 mg/kg BIBF-1120 solubilized in solutol for 5 days a week over 4 weeks. (A-C) Depicted are representative images of Masson's Trichrome staining of non-humanized (A) and humanized NSG mice that received solutol (B) or BIBF-1120 (C). (D) Depicted is the hydroxyproline in the lungs of non-humanized or humanized NSG mice that received solutol or BIBF-1120. Data are mean±s.e.m.; n=5-10/group. (E-F) Solutol- or BIBF1120-treated NSG humanized mouse lungs were analyzed by flow cytometry for human CD45, EpCAM and/or CCR10 expression. Depicted is the average number of CD45^+ CCR10^+ (E) and Lin^− CCR10^+ (F) cells in humanized NSG mice treated with solutol or BIBF1120. Data are mean±s.e.m.; n=5-10/group. p values indicated
Six to eight-week old, female, pathogen free NOD Cg-Prkdc^SCID IL2rg^Tm1wil Szi (NSG) or NOD.Cg-Prkdc^SCID IL2rg^tm1Wil Tg(CAG-EGFP) 10sb/SzJ (NSG-GFP) were purchased from Jackson Laboratories and housed in Cedars-Sinai Medical Center's high isolation animal rooms. NSG mice were allowed a minimum of one week to acclimate in the facility and then these mice either received nothing (i.e., non-humanized) 1×10^6 IPF cells by intravenous injection (i.e. humanized). In most in vivo experiments, the IPF cells used were removed from liquid N2 storage, rapidly thawed, and washed in serum-free medium prior to injection into NSG mice. Humanized NSG mice received KB004 (i.e., anti-EphA3 mAb supplied by Kalobios; 5 mg/kg) or KB243 (i.e., appropriate IgG control supplied by Kalobios; 5 mg/kg) either from days 0 to 35 or from days 35 to 63 by intraperitoneal injection twice weekly. […] Other groups of humanized NSG mice received either vehicle (i.e., solutol) or BIBF1120 (Cayman Chemicals) by oral gavage beginning at day 35 after IPF cell injection. Vehicle or drug was administered 5 days a week until day 63 after IPF cell injection. All NSG groups were monitored daily and mice were sacrificed if there is evidence for morbidity such as weight loss of more than 20%, loss of fur, paralysis and/or lack of responsiveness when handled.
Murine lung cellular suspensions were generated using a mouse lung dissociation kit, C-tubes, and a GentleMacs dissociator (Miltenyi Biotech). Spleens were dissociated using a sterile rubber tip of 1 ml syringe plunger and 100 μm 50 ml tube filters (BD bioscience) as follows: isolated spleens were placed in 1 ml of sterile complete medium until all the samples were collected. Sterile 50 ml conical tube filters were placed on top of sterile 50 ml conical tubes and were equilibrated by pipetting 1 ml of calcium and magnesium free DPBS (DBPS; Cellgro) through the filters. Spleens were transferred to a sterile 50 ml filter, cellular suspensions were generated using a sterile rubber tip of a syringe plunger, and splenic material was flushed with 5 ml of DPBS. Lung and splenic cell suspensions were centrifuged and resuspended in 1 ml of RBC lysis buffer (Biolegend), incubated at room temperature for 1-2 min and then equilibrated by adding 25 ml of DPBS to each tube. Cells were centrifuged and resuspended in flow cytometric wash/staining buffer (DPBS+2% FBS) in the presence of human and mouse Fc receptor blocking antibodies (Biolegend). Cells were then stained with anti-human-CD45, -EpCAM and -CCR10 antibodies for 20 min at 4° C. Unstained, isotype controls, fluorescent minus one controls and staining in non-humanized murine lung and spleen suspensions were utilized to gate out any non-specific antibody binding and background fluorescence. CCR10 antibodies were validated via the enrichment for CCR10 transcripts in magnetically sorted CCR10^+ cells versus non-sorted normal and IPF explant cells (FIG. 35). […]

lung fibroblast = assay: Lung fibroblast invasiveness (not shown); assay type: cell-based, human; conditions: CCL28; data not shown
[5] = test system: normal and IPF lung fibroblasts; assay: In cell αSMA ELISA in lung fibroblasts; assay type: cell-based, human; conditions: CCL28; data not shown
Method: Lung fibroblasts (5000/well) were plated into a 96 well plate and incubated overnight. […] After stimulation, conditioned supernatants were collected and the cells were washed and fixed with 4% paraformaldehyde solution in PBS for 10 min at room temperature.
After fixation, cells were washed and permeabilized with 0.5% Triton X-100 in DPBS for 10 min, washed and endogenous peroxidase activity was blocked by adding a solution of 0.3% H2O2 in DPBS to the cells and incubating the cells with the solution for 20 min at room temperature. Cells were then washed and wells were blocked with a 1% BSA solution in DPBS for 30 min at room temperature. After blocking, cells were incubated with 500 ng/ml of anti-czSMA antibodies (Clone 1A4, Abcam) overnight at 4° C. on a rocker. […] The reaction was then stopped by adding 50 μl of 2N sulfuric acid and data were acquired by reading the absorbance at […] using a Synergy H1 microplate reader (BioTek Instruments Inc.). […] Data were acquired by reading the absorbance at 595 nm using a Synergy H1 microplate reader (BioTek Instruments Inc.). Ratios were generated from αSMA/β-tubulin absorbance data and the results were normalized to vehicle. The fold change after 24 and 72 h relative to vehicle was then determined and depicted in the figures.

[6] = 60 mg/kg from day 35, day 63, flow cytometry

## IL1β: cytokine Interleukin 1 beta used to stimulate lung fibroblasts (R&D systems) [reference compound]
[1]; IL1β 20 ng/ml, after 24 and, to a lesser extent, 72 h
  collagen 1 in normal and IPF lung fibroblasts: induced
[2]
  surface EphA3 on normal and IPF lung fibroblasts: significantly unregulated

## Cc1ccc(=O)n(-c2ccccc2)c1 [ESBRIET, Pirfenidone]
[3]
  disease progression in IPF patients: effective at slowing down, but not halting, disease progression

## COC(=O)c1ccc2c(c1)NC(=O)/C2=C(\Nc1ccc(N(C)C(=O)CN2CCN(C)CC2)cc1)c1ccccc1 [BIBF1120, Nintedanib]
[4]; 60 mg/kg from day 35, day 63
  lung hydroxyproline compared with non-humanized NSG lungs: elevated
[4]; [6]
  CD45+ CCR10+ cells in NSG lungs compared with vehicle-treated group: greater
  Lin- CCR10+ cells in NSG lungs compared with vehicle-treated group: greater
[4]; 60 mg/kg in solutol from day 35, lungs at day 63 after IPF cell injection
  lung fibrosis (Masson's trichrome staining): showed lung fibrosis
[4]
  modulation of fibrosis in humanized NSG model of IPF: ineffective at modulating fibrosis
[4]; listed as nintedanib
  modulation of fibrosis in humanized NSG model of IPF: did not therapeutically modulate fibrosis
[3]
  disease progression in IPF patients: effective at slowing down, but not halting, disease progression

B1: CCL28: chemokine, CCR10 ligand (protein, UniProt Q9NRJ3 20-127, looked up)
C-C motif chemokine 28: SEAILPIASSCCTEVSHHISRRLLERVNMCRIQRADGDCDLAAVILHVKRRRICVSPHNHTVKQWMKVQAAKKNGKGNVCHRKKHHGKRNSNRAHQGKHETYGHKTPY
Lung fibroblast
  lung fibroblast invasiveness: did not consistently modulate
[5]
  αSMA protein expression in lung fibroblasts: did not consistently modulate
[1]; CCL28, data not shown
  collagen 1 secretion by lung fibroblasts: did not consistently modulate
